The values that follow are results of earlier work, collected in patent US20090270438A1, “Novel compositions and formulations” (priority 2006, published 2009).

For the data set the following is noted: Pharmaceutical Codex.

For the compound `COC12CCC3(CC1C(C)(O)C(C)(C)C)C1Cc4ccc(O)c5c4C3(CCN1CC1CC1)C2O5` (stereo not shown) [buprenorphine, Buprenorphine], the pKa is 8.5.

The term pKa denotes the pH at which an ionisable group is half protonated.
